# Measurements reported in PMC4613828 (PLoS Pathogens, 2015).
# Legend:
# CVA9 (strain Bozek) = experiment: Virus-cell-based antiviral assay (CPE reduction, MTS); design: species or system Coxsackie A9; settings: Enterovirus B, BGM cells
# CVA16 (strain G-10) = experiment: as above; design: species or system coxsackievirus A16; settings: Enterovirus A, HeLa H1 cells
# [1] = tested on: EV71-B5 (strain TW/96016/08 genogroup B5); experiment: as above; design: species or system enterovirus 71; settings: Enterovirus A; EV71 strain TW/96016/08 genogroup B5; RD cells
# [2] = tested on: EV71-B2 (strain 11316 genogroup B2); experiment: as above; design: species or system enterovirus 71; settings: Enterovirus A; EV71 strain 11316 genogroup B2; RD cells
# CVB3 (strain Nancy) = experiment: as above; design: species or system Coxsackievirus B3; settings: Enterovirus B, BGM cells
# [3] = tested on: PV1 (poliovirus type 1 strain Sabin); experiment: microbe, parasite or virus in culture; format: cell-based; settings: Enterovirus C, BGM
# [4] = tested on: PV2 (poliovirus type 2 strain Sabin); experiment: microbe, parasite or virus in culture; format: cell-based; settings: Enterovirus C, BGM
# CVA21 (strain Coe) = experiment: Virus-cell-based antiviral assay (CPE reduction, MTS); settings: BGM cells
# CVB4 (strain E2 Edwards) = experiment: as above; settings: Enterovirus B, BGM cells
# [5] = tested on: HRV02 (human rhinovirus type 2); experiment: as above; settings: Human rhinovirus sp., HeLa H1 cells (footnote c), 35°C
# in vitro = settings: African green monkey
# [6] = tested on: HRV14 (human rhinovirus type 14); experiment: Virus-cell-based antiviral assay (CPE reduction, MTS); settings: Human rhinovirus sp., HeLa H1 cells (footnote c), 35°C
# [7] = tested on: PV3 (poliovirus type 3 strain Sabin); experiment: microbe, parasite or virus in culture; format: cell-based; settings: Enterovirus C, BGM
# [8] = tested on: ECHO11 (echovirus 11 strain Gregory); experiment: Virus-cell-based antiviral assay (CPE reduction, MTS); settings: Enterovirus B, BGM cells
Structure (SMILES),EC50 (CVA9 (strain Bozek)) [nM],EC50 (CVA16 (strain G-10)) [nM],EC50 [1] [nM],EC50 [2] [nM],EC50 (CVB3 (strain Nancy)) [nM],EC50 [3] [nM],EC50 [4] [nM],EC50 (CVA21 (strain Coe)) [nM],EC50 (CVB4 (strain E2 Edwards)) [nM],EC50 [5] [nM],CC50 (in vitro) [nM],EC50 [6] [nM],EC50 [7] [nM],EC50 [8] [nM]
CCON=Cc1ccc(OCCC(C)CCN2CCN(c3ccncc3)C2=O)cc1 (stereo not shown) [GPP3],1500 ± 100,14 ± 4,0.93 ± 0.3,0.96 ± 0.6,3700 ± 200,200,6,16 ± 15,> 7000,1000 ± 700,7000 ± 2000,1500 ± 300,66,500 ± 100
CCON=Cc1ccc(OCCC(C)CCN2CCN(c3ccnc(C(N)=O)c3)C2=O)cc1 (stereo not shown) [ALD],5400 ± 1000,43 ± 8,82 ± 23,31 ± 12,2200 ± 200,3500 ± 1400,75 ± 19,56 ± 40,> 7000,> 21000,7000 ± 1000,843 ± 13,184 ± 8,2100 ± 500
